Data: patent US10577308B2, “Sodium channel modulators” (The Florey Institute of Neuroscience and Mental Health, priority 2015, dated 2020)
pIC50: −log10 of the molar value. Like-named read-outs stand apart in the source and are kept apart here.

Assays:
[1] = biological target: hNav1.6 (Homo sapiens (Human), UniProt Q9UQD0); assay: Automated patch clamp (IonWorks Quattro) block of hNav1.6 channels in CHO cells; type: cell-based
Text: (§1) FIG. 1 depicts the voltage sequence used to measure inhibitory activity of compounds as described in Example 3. An automated patch clamp screening assay was used to measure the inhibitory effect (potency) of compounds in three conformational states of the sodium channel: (1) the tonic state (TP1); (2) the frequency-dependent (10 Hz) state (TP11) and (3) the inactivated state (TP12).
(§2) Test Protocol for Determining the Potency of Compounds on Nav1.2 and Nav1.6 Subtypes of Voltage-Gated Sodium Ion Channels Expressed in Mammalian Cells
(§3) Cell culture procedures: Chinese hamster ovary (CHO) cells were stably transfected with the cDNA sequence of either the human SCN2A or SCN8A genes to create hNav1.2 or hNav1.6 cells respectively. The cell lines were cultured in Ham's F-12 medium supplemented with 10% fetal bovine serum and antibiotics in a tissue incubator at 37° C. under a humidified air/CO2 mixture (95/5 v/v). On the day of the experiment, cells were washed twice with Hank's balanced salt solution, treated with trypsin, and resuspended in fresh culture media at a density of 4−6×10^6 cells in 20 ml. Immediately before placing in the IonWorks Quattro instrument, cells were washed in Hank's balanced salt solution to remove culture medium and re-suspended in 3 ml of Hank's balanced salt solution.
(§4) Automated patch clamp recordings of cells using the IonWorks Quattro Instrument: The assay used a 384 microwell plate, which enabled 20 compounds to be studied at four different concentrations in quadruplicate as well as allowing a vehicle control group and a positive control group using mexiletine at 8 different concentrations. Cells were added to the wells of the Population Patch Clamp planar electrode using a 48-channel pipettor in a volume of 6 μL, per well. After 5 minutes incubation at ambient temperature with compounds or vehicle, membrane currents were recorded using the patch clamp amplifier. The pulse pattern was repeated twice, before and after compound addition and peak current amplitudes were measured at three test pulses, TP1, TP11 and TP12 to measure Tonic Block, 10 Hz Frequency-dependent Block and Inactivation State Block, respectively.
(§5) Data analysis: Data acquisition and analyses were carried out using the IonWorks Quattro system operation software which uses an algorithm to correct data for leak currents. Concentration-response curves were fitted by non-linear least squares regression allowing calculation of an IC50 value (μM), being the concentration of the compound producing half-maximal inhibition.

[2] = biological target: hNav1.2 (Homo sapiens (Human), UniProt Q99250); assay: Automated patch clamp (IonWorks Quattro) block of hNav1.2 channels in CHO cells; type: cell-based
Text: as §1, §2, §3, §4, §5

[3] = 10 Hz frequency-dependent block (TP11), read-out: IC50 Nav1.6 10 Hz block
[4] = Inactivated state block (TP12), read-out: IC50 Nav1.6 Inactivated state block
[5] = Tonic block (TP1), read-out: IC50 Nav1.6 Tonic block
[6] = 10 Hz frequency-dependent block (TP11), read-out: IC50 Nav1.2 10 Hz block
[7] = Inactivated state block (TP12), read-out: IC50 Nav1.2 Inactivated state block
[8] = Tonic block (TP1), read-out: IC50 Nav1.2 Tonic block

hNav1.6, sequence (Q9UQD0 whole entry): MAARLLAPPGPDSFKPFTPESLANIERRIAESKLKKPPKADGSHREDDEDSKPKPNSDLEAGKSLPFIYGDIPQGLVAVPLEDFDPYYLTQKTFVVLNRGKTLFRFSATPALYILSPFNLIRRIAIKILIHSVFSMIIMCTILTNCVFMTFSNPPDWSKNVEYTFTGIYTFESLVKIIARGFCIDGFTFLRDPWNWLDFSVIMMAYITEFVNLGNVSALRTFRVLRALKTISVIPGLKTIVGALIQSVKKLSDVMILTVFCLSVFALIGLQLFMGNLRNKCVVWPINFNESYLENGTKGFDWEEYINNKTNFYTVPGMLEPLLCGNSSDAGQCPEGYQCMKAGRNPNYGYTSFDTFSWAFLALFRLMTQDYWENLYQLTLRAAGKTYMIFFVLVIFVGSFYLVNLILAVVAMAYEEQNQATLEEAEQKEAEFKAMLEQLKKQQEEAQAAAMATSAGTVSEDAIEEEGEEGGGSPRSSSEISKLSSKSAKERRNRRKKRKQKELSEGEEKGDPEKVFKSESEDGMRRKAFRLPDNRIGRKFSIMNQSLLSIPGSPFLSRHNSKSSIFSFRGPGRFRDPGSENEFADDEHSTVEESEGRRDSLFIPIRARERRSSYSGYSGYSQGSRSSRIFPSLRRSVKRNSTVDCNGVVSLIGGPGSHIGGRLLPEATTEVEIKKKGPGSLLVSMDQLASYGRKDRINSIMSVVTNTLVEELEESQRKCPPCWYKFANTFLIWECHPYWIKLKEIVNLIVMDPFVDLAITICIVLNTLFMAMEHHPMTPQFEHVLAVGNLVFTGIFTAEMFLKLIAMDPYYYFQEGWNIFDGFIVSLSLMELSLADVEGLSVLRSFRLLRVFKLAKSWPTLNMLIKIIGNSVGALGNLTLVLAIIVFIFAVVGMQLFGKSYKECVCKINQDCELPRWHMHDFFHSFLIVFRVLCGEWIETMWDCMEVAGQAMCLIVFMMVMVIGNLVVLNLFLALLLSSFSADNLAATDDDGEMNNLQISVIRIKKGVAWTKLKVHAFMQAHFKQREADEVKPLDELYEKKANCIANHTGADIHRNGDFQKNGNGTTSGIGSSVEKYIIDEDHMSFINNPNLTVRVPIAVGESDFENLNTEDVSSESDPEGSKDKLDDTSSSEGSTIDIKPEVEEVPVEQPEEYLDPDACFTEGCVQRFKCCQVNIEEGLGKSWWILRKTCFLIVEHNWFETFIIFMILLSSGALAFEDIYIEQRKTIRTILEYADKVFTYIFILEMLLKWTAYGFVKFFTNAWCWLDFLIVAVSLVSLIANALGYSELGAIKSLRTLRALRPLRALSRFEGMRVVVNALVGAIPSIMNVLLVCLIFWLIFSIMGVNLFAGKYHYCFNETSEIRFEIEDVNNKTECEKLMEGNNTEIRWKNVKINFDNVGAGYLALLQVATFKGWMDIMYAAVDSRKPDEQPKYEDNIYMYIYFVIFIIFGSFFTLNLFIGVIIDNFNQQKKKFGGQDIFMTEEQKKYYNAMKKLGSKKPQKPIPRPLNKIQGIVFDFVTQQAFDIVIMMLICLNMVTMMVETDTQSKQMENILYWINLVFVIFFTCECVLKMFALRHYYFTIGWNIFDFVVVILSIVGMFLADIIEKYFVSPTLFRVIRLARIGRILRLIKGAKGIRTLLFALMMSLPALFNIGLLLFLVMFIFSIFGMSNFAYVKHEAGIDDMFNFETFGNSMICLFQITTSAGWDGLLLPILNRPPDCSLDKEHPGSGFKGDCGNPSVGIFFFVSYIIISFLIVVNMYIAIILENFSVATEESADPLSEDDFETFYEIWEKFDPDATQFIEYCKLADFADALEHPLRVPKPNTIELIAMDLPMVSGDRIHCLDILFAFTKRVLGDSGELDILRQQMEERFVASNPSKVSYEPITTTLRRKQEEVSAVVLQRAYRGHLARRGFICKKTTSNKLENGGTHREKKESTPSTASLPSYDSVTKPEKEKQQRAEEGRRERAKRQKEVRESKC
hNav1.2, sequence (Q99250 whole entry): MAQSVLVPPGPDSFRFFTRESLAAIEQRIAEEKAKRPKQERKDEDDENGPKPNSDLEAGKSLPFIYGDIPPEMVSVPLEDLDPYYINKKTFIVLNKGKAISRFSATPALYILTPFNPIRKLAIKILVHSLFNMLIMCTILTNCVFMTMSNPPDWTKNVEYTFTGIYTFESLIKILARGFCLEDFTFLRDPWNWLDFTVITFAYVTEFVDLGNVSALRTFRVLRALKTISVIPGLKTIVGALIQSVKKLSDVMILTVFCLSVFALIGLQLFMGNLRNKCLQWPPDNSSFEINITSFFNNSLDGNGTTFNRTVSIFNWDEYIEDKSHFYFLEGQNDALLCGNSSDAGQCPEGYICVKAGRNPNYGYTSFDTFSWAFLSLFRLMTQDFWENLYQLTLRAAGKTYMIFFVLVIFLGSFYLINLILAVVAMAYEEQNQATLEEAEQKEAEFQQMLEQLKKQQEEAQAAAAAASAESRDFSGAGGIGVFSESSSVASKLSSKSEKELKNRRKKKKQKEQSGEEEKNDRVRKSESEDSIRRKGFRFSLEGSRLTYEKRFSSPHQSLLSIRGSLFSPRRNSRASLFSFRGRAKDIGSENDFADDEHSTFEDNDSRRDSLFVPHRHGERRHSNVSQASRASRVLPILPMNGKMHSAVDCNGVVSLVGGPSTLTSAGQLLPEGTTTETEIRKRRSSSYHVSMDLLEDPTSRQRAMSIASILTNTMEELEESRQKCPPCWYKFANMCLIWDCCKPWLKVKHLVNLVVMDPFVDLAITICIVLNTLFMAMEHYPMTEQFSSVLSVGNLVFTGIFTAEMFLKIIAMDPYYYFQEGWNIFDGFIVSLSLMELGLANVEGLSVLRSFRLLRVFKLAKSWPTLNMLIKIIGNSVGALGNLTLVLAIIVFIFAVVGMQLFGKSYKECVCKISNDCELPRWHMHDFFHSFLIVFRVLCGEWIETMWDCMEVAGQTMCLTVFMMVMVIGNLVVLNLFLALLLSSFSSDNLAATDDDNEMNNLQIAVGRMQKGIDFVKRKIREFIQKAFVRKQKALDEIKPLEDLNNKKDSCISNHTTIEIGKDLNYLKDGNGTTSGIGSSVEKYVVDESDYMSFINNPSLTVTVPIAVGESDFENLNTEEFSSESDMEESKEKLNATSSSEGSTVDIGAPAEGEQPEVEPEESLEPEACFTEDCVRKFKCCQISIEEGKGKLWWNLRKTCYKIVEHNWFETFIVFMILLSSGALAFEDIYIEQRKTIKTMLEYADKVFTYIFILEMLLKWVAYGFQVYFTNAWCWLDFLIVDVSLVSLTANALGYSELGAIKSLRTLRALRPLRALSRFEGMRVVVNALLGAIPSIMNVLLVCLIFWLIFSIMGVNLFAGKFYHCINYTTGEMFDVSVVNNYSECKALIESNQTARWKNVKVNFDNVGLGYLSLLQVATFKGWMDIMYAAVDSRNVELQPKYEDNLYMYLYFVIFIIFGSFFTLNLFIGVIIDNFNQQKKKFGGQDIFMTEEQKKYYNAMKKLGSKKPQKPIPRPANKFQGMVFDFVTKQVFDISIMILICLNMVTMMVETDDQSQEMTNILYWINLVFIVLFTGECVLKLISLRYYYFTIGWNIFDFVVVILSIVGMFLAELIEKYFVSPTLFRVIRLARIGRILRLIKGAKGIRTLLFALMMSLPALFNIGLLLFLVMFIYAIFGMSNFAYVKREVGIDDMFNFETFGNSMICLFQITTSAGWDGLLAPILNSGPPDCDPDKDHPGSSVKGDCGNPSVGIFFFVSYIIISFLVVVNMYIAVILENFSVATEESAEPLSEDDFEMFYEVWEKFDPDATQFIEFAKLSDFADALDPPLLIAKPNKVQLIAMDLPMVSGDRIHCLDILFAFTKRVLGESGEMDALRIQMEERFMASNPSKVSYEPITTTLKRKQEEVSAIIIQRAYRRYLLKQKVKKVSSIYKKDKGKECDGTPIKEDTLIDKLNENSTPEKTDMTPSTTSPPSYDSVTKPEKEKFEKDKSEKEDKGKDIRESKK

| Compound | pIC50 [1, 3] | pIC50 [1, 4] | pIC50 [1, 5] | pIC50 [2, 6] | pIC50 [2, 7] | pIC50 [2, 8] |
| --- | --- | --- | --- | --- | --- | --- |
| COc1ccc(CNCCCOc2c(C)cccc2C)cc1 [Compound 520, 3-(2,6-Dimethylphenoxy)-N-(4-methoxybenzyl)propan-1-amine] | 5.59 | 5.82 | 5.31 | 5.68 | 6.00 | 5.20 |
| Cc1cccc(C)c1OCCCNCc1ccccc1F [Compound 551, 3-(2,6-Dimethylphenoxy)-N-(2-fluorobenzyl)propan-1-amine] | 5.70 | 5.96 | 5.25 | 5.31 | 5.68 | ~5.00 |
| 3-((3-(2,6-Dimethylphenoxy)propylamino)methyl)benzonitrile [Compound 524] | 5.41 | < 5.00 | 5.11 | 5.02 | < 5.00 | < 5.00 |
| Cc1cccc(C)c1OCCCNCc1ccc(F)cc1 [Compound 521, 3-(2,6-Dimethylphenoxy)-N-(4-fluorobenzyl)propan-1-amine] | 5.66 | 5.85 | 5.35 | 5.08 | 5.55 | ~4.99 |
| Cc1cccc(C)c1OCCCNCc1cccnc1 [Compound 528, 3-(2,6-Dimethylphenoxy)-N-(pyridin-3-ylmethyl)propan-1-amine] | 4.91 | 5.33 | 4.50 | 4.88 | 5.32 | 4.46 |
| Cc1cccc(C)c1OCCCNCc1noc(C(C)C)n1 [Compound 538, 3-(2,6-Dimethylphenoxy)-N-((5-isopropyl-1,2,4-oxadiazol-3-yl)methyl)propan-1-amine] | < 5.00 | < 5.00 | < 5.00 | < 5.00 | ~4.99 | < 5.00 |
| Cc1cccc(C)c1OCCCNC(C)c1ccccc1 (stereo not drawn) [Compound 553, 3-(2,6-Dimethylphenoxy)-N-(1-phenylethyl)propan-1-amine] | 6.00 | 6.52 | 5.80 | 5.92 | 6.70 | 5.44 |

Next, values leading:

| pIC50 [1, 3] | pIC50 [1, 4] | pIC50 [1, 5] | pIC50 [2, 6] | pIC50 [2, 7] | pIC50 [2, 8] | Compound |
| --- | --- | --- | --- | --- | --- | --- |
| < 5.00 | < 5.00 | < 5.00 | < 5.00 | < 5.00 | < 5.00 | Cc1cccc(C)c1OCCCNCc1cc(C(C)(C)C)cc(C(C)(C)C)c1 [Compound 559, N-(3,5-Di-tert-butylbenzyl)-3-(2,6-dimethylphenoxy)propan-1-amine] |
| 5.89 | 7.00 | < 4.52 | 5.92 | 7.00 | < 4.52 | Cc1cccc(C)c1OCCCNC(c1ccccn1)c1ccccn1 [Compound 562, 3-(2,6-Dimethylphenoxy)-N-(dipyridin-2-ylmethyl)propan-1-amine] |
| < 5.00 | < 5.00 | < 5.00 | < 5.00 | < 5.00 | < 5.00 | Cc1n[nH]c(C)c1OCCCNC(c1ccccn1)c1ccccn1 [Compound 642, 3-(3,5-Dimethyl-1H-pyrazol-4-yloxy)-N-(dipyridin-2-ylmethyl)propan-1-amine] |
| < 5.00 | 5.43 | < 5.00 | < 5.00 | 5.03 | < 5.00 | Cc1cccc(C)c1OCCCNCc1c2ccccc2nn1Cc1ccccc1 [Compound 555, N-((2-Benzyl-2H-indazol-3-yl)methyl)-3-(2,6-dimethylphenoxy)propan-1-amine] |
| < 3.00 | < 3.00 | < 3.00 | 4.49 | 5.85 | < 3.00 | Cc1cccc(C)c1OCCCNC(c1ccccc1)c1ccccc1 [Compound 554, N-Benzhydryl-3-(2,6-dimethylphenoxy)propan-1-amine] |
| < 4.52 | < 4.52 | < 4.52 | 5.03 | 5.49 | < 4.52 | Cc1cccc(C)c1OCCCNCc1cccc(-c2ccc(F)cc2)c1 [Compound 557, 3-(2,6-Dimethylphenoxy)-N-((4′-fluorobiphenyl-3-yl)methyl)propan-1-amine] |
